Measured values reported in patent publication US4309559A, “Sulphonamides useful as pesticides” (FBC Limited, priority 1977, dated 1982).

Assays:
Format in all cases: in vivo
[1] = test system: Ryegrass (Lolium perenne); assay: Post-emergence foliar spray, herbicidal/growth regulant response, ryegrass; details: 168 h, foliar spray 11.2 kg/ha, 7 days, 0=no effect, 100=complete kill, read-out: herbicidal or growth regulant response index
Method in brief: (§1)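 Seedlings grown in potting compost at 22 °C, 14 h light, sprayed 14 days after sowing with compound in 1:1 aqueous acetone at 11.2 kg/ha in 450 l/ha. Visual scoring of herbicidal or growth-regulant response after 7 days versus untreated control, 0 = no effect to 100 = complete kill.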

[2] = test system: French beans (Phaseolus vulgaris); assay: Post-emergence foliar spray, herbicidal/growth regulant response, French beans; details: foliar spray 11.2 kg/ha, 7 days, 0=no effect, 100=complete kill
Method in brief: as §1

[3] = test system: Mustard (Sinapis alba); assay: Soil incorporation (attaclay/sand dust), growth regulatory or herbicidal effects, mustard; details: 504 h, soil incorporation 26 ppm, 21 days, 0=no effect, 100=complete kill, read-out: growth regulatory or herbicidal effect score
Method in brief: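 Dust-formulated compound incorporated in potting compost, 26 or 130 ppm w/v; seeds sown, watered, 21 d at 22° C, 65-85% RH, 14 h/day 13,000 lux. Visual growth-regulatory/herbicidal score 0 (no effect) to 100 (complete kill) vs untreated.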

[4] = test system: Wheat (Triticum aestivum); assay: Pre-emergence soil surface spray, wheat; details: soil surface spray 2.8 kg/ha, 21 days, 0=no effect, 100=complete kill
Method in brief: (§2)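 Compounds are applied to the compost surface right after sowing, at 2.8 kg active ingredient per hectare. After 21 days in a controlled environment room at 22° C., any difference from untreated plants is rated visually from 0 (no effect) to 100 (complete kill).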

[5] = test system: Blackgrass (Alopecurus myosuroides); assay: Pre-emergence soil surface spray, blackgrass; details: soil surface spray 2.8 kg/ha, 21 days, 0=no effect, 100=complete kill
Method in brief: as §2

CCCS(=O)(=O)N(c1c(C)cccc1C)C(C)C(=O)OCC (centres unmarked) [Example 24, N-(1-[ethoxycarbonyl]ethyl)-2',6'-dimethyl-1-propanesulphonanilide]
pest or weed control at 11200 g/ha [1]: 75% | herbicidal or growth regulant response index [2]: 100 | pest or weed control at 26 µg/mL [3]: 100% | growth regulatory or herbicidal effect score [4]: 10 | growth regulatory or herbicidal effect score [5]: 100
